From US20250057857A1, “AQUEOUS PARENTERAL PHARMACEUTICAL FORMULATIONS CONTAINING 4-((2-HYDROXY-3-METHOXYBENZYL)AMINO) BENZENESULFONAMIDE DERIVATIVES” (Veralox Therapeutics Inc., priority 2021, published 2025)
≈ marks a conversion by molar mass, not a printed value.

Tests used:
Assay type in all cases: physicochemical
[1] = Solubility in HP-β-CD at high pH; details: 25% cyclodextrin solution, aqueous with cosolvent or surfactant or cyclodextrin
Protocol: Compound forms a metastable supersaturated solution when formulated with cyclodextrins. To assess for increased solubility, Compound 1 was added to a basic cyclodextrin solution to effect dissolution. The resulting solution was then adjusted with hydrochloric acid into a physiologically compatible pH range and subjected to kinetic solubility, equilibrium solubility, and formulation solubility analyses.
Kinetic solubility. […] The resulting intermediate pH values were approximately 12.5, which promoted rapid dissolution of Compound 1. However, the solutions are known to be chemically labile at higher pH values. The concentration of Compound 1 in subsequent formulation evaluations was lowered to 20 mg/mL and then reduced to 15 mg/mL.

[2] = Aqueous solubility (general statements)
[3] = Comparative solubility in SBE-β-CD at pH 9.5; details: pH 9.5, 80 mg/mL, 22 hours stirring at room temperature
Protocol: For this study, 1.20 g of SBE-β-CD was weighed into a beaker and 1.31 mL of water was added. This mixture was stirred to dissolve solid completely. 0.846 g of 60% SBE-β-CD stock solution was weighed into a sample vial, and 1.53 mg of GLY, 70 μL of water, and 130 μL of 2N NaOH were added. This mixture was stirred for 10 minutes at room temperature to dissolve solid completely. 80.6 mg of Compound 1 was added (80 mg/mL) and the mixture was sonicated for 10 minutes followed by vigorous stirring for 22 hours at room temperature (23-25° C.).

[4] = Solubility measurement in solubilizers (aqueous phosphate buffer at pH 7.4)
Protocol: (§1) Solubility analysis of Compound 1 (N-(benzo[d]thiazol-2-yl)-4-((2-hydroxy-3-methoxybenzyl)amino)benzenesulfonamide) was performed in a total of 25 media including organic solvent, co-solvent, solubilizer and buffer, for 2 hours at room temperature.
(§2) HPLC method with acceptable resolution and main peak purity developed to determine solubility. The method is described in Table 3.
(§3) 5-10 mg of Compound 1 was added to 0.5-1 mL each medium (target concentration was 10 mg/mL), vortexed briefly to create a suspension. The samples were shaken at room temperature. The samples were prepared in duplicate (n=2) per medium and filtered at 0.5 and 2 hours. The supernatant was collected and analyzed by HPLC.

[5] = Solubility measurement in buffers over a pH range; details: thermodynamic from solid
Protocol: as §1, §2, §3

[6] = Solubility measurement in solvents; details: for solubility at 2 h / solubility at 0.5 h: room temperature
Protocol: as §1, §2
About 5 mg of Compound 1 was weighed to sample vial and 0.5 mL of solvent was added (target concentration was 10 mg/mL) with 30-100 μL per time. The samples were shaken at room temperature. The samples were prepared in duplicate (n=2) per medium and filtered at 0.5 and 2 hours. The supernatant was collected and analyzed by HPLC.

[7] = pH 8.0, read-out: Solubility with 25% cyclodextrin at pH 8.0
[8] = pH 9.8, read-out: Solubility with 25% cyclodextrin at pH 9.8

## COc1cccc(CNc2ccc(S(=O)(=O)Nc3cccc(C(C)C)c3)cc2)c1O [Compound 3, 4-((2-hydroxy-3-methoxybenzyl)amino)-N-(3-isopropylphenyl)benzenesulfonamide]
[1]; [7]
  solubility: ~20000 µg/mL (≈ 46900 µM)
[1]; [8]
  solubility: ~40000 µg/mL (≈ 93800 µM)
[2]
  Solubility in water: poor solubility

## COc1cccc(CNc2ccc(S(=O)(=O)Nc3nc4ccccc4o3)cc2)c1O [Compound 2, N-(benzo[d]oxazol-2-yl)-4-((2-hydroxy-3-methoxybenzyl)amino)benzenesulfonamide]
[1]; [7]
  solubility: ~20000 µg/mL (≈ 47000 µM)
[1]; [8]
  solubility: ~40000 µg/mL (≈ 94000 µM)
[2]
  Solubility in water: poor solubility

## COc1cccc(CNc2ccc(S(=O)(=O)Nc3nc4ccccc4s3)cc2)c1O [Compound 1, N-(benzo[d]thiazol-2-yl)-4-((2-hydroxy-3-methoxybenzyl)amino)benzenesulfonamide]
[3]
  Dissolution in SBE-β-CD, visual observation: Little, if any, dissolution
[4]; 1% Tween 80 in phosphate buffer, pH 7.4, aqueous with cosolvent or surfactant or cyclodextrin, thermodynamic from solid, 1% Tween 80, phosphate buffer pH 7.4, 0.5 h
  solubility at 0.5 h: 20 µg/mL (≈ 45.3 µM)
[4]; 1% Tween 80 in phosphate buffer, pH 7.4, aqueous with cosolvent or surfactant or cyclodextrin, thermodynamic from solid, 1% Tween 80, phosphate buffer pH 7.4, 2 h, read-out: Solubility at 2 h
  solubility at 2 h: 39 µg/mL (≈ 88.3 µM)
[4]; 5% Cremophor RH40 in phosphate buffer, pH 7.4, aqueous with cosolvent or surfactant or cyclodextrin, thermodynamic from solid, 5% Cremophor RH40, phosphate buffer pH 7.4, 0.5 h
  solubility at 0.5 h: 47 µg/mL (≈ 106 µM)
[4]; 5% Cremophor RH40 in phosphate buffer, pH 7.4, aqueous with cosolvent or surfactant or cyclodextrin, thermodynamic from solid, 5% Cremophor RH40, phosphate buffer pH 7.4, 2 h, read-out: Solubility at 2 h
  solubility at 2 h: 51 µg/mL (≈ 116 µM)
[4]; 5% Solutol in phosphate buffer, pH 7.4, aqueous with cosolvent or surfactant or cyclodextrin, thermodynamic from solid, 5% Solutol, phosphate buffer pH 7.4, 0.5 h
  solubility at 0.5 h: 78 µg/mL (≈ 177 µM)
[4]; 5% Solutol in phosphate buffer, pH 7.4, aqueous with cosolvent or surfactant or cyclodextrin, thermodynamic from solid, 5% Solutol, phosphate buffer pH 7.4, 2 h, read-out: Solubility at 2 h
  solubility at 2 h: ~100 µg/mL (≈ 226 µM)
[4]; 5% Solutol, phosphate buffer pH 7.4, 2 h
  solubility at 2 h: 100 µg/mL (≈ 226 µM)
[4]; 5% Tween 80 in phosphate buffer, pH 7.4, aqueous with cosolvent or surfactant or cyclodextrin, thermodynamic from solid, 5% Tween 80, phosphate buffer pH 7.4, 0.5 h
  solubility at 0.5 h: 41 µg/mL (≈ 92.9 µM)
[4]; 5% Tween 80 in phosphate buffer, pH 7.4, aqueous with cosolvent or surfactant or cyclodextrin, thermodynamic from solid, 5% Tween 80, phosphate buffer pH 7.4, 2 h, read-out: Solubility at 2 h
  solubility at 2 h: 46 µg/mL (≈ 104 µM)
[4]; 10% HP-β-CD in phosphate buffer, pH 7.4, aqueous with cosolvent or surfactant or cyclodextrin, thermodynamic from solid, 10% HP-β-CD, phosphate buffer pH 7.4, 0.5 h
  solubility at 0.5 h: 56 µg/mL (≈ 127 µM)
[4]; 10% HP-β-CD in phosphate buffer, pH 7.4, aqueous with cosolvent or surfactant or cyclodextrin, thermodynamic from solid, 10% HP-β-CD, phosphate buffer pH 7.4, 2 h, read-out: Solubility at 2 h
  solubility at 2 h: 63 µg/mL (≈ 143 µM)
[4]; 10% Tween 80 in phosphate buffer, pH 7.4, aqueous with cosolvent or surfactant or cyclodextrin, thermodynamic from solid, 10% Tween 80, phosphate buffer pH 7.4, 0.5 h
  solubility at 0.5 h: 76 µg/mL (≈ 172 µM)
[4]; 10% Tween 80 in phosphate buffer, pH 7.4, aqueous with cosolvent or surfactant or cyclodextrin, thermodynamic from solid, 10% Tween 80, phosphate buffer pH 7.4, 2 h, read-out: Solubility at 2 h
  solubility at 2 h: 78 µg/mL (≈ 177 µM)
[4]; 20% Captisol in phosphate buffer, pH 7.4, aqueous with cosolvent or surfactant or cyclodextrin, thermodynamic from solid, 20% Captisol, phosphate buffer pH 7.4, 0.5 h
  solubility at 0.5 h: 100 µg/mL (≈ 226 µM)
[4]; 20% Captisol in phosphate buffer, pH 7.4, aqueous with cosolvent or surfactant or cyclodextrin, thermodynamic from solid, 20% Captisol, phosphate buffer pH 7.4, 2 h, read-out: Solubility at 2 h
  solubility at 2 h: 110 µg/mL (≈ 249 µM)
[4]; 20% HP-β-CD in phosphate buffer, pH 7.4, aqueous with cosolvent or surfactant or cyclodextrin, thermodynamic from solid, 20% HP-β-CD, phosphate buffer pH 7.4, 0.5 h
  solubility at 0.5 h: 170 µg/mL (≈ 385 µM)
[4]; 20% HP-β-CD in phosphate buffer, pH 7.4, aqueous with cosolvent or surfactant or cyclodextrin, thermodynamic from solid, 20% HP-β-CD, phosphate buffer pH 7.4, 2 h, read-out: Solubility at 2 h
  solubility at 2 h: 190 µg/mL (≈ 430 µM)
[4]; 40% HP-β-CD in aqueous phosphate buffer pH 7.4, pH 7.4, aqueous with cosolvent or surfactant or cyclodextrin, thermodynamic from solid, 40% HP-β-CD, phosphate buffer pH 7.4, 0.5 h
  solubility at 0.5 h: 450 µg/mL (≈ 1020 µM)
[4]; 40% HP-β-CD in phosphate buffer, pH 7.4, aqueous with cosolvent or surfactant or cyclodextrin, thermodynamic from solid, 40% HP-β-CD, phosphate buffer pH 7.4, 2 h, read-out: Solubility at 2 h
  solubility at 2 h: 570 µg/mL (≈ 1290 µM)
[4]; HP-β-CD 10% to 40%, pH 7.4
  Increase of solubility with the increase of HP-β-CD from 10% to 40%: > 8 fold
[4]; HP-β-CD (range of contents) in aqueous phosphate buffer, pH 7.4, aqueous with cosolvent or surfactant or cyclodextrin, thermodynamic from solid, HP-β-CD, range over contents tested
  solubility: 50 to 500 µg/mL (≈ 113 to 1130 µM)
[4]; Tween 80 1% to 10%
  Increase of solubility with the increase of Tween 80 from 1% to 10%: about 4 fold
[4]; same concentration (20%)
  Solubility in HP-β-CD compared with Captisol (SBE-β-CD): nearly two times greater
[1]; [7]
  solubility: ~20000 µg/mL (≈ 45300 µM)
[1]; [8]
  solubility: ~40000 µg/mL (≈ 90600 µM)
[2]
  Solubility in water: poor solubility
[5]; bicarbonate buffer pH 10.0, pH 10, aqueous buffer, Bicarbonate, pH 10.0, 0.5 h (measured pH 10.02)
  solubility at 0.5 h: 0.397 µg/mL (≈ 0.899 µM)
[5]; bicarbonate buffer pH 10.0, pH 10, aqueous buffer, Bicarbonate, pH 10.0, 2 h (measured pH 10.08)
  solubility at 2 h: 0.576 µg/mL (≈ 1.31 µM)
[5]; pH 10 buffer, pH 10, aqueous buffer, pH 10, read-out: Solubility in pH 10 buffer
  solubility: 0.4 to 0.6 µg/mL (≈ 0.906 to 1.36 µM)
[5]; pH buffers, pH 1, aqueous buffer, pH 1-9 buffers, main peak not detected by HPLC, read-out: Solubility in pH buffers, pH 1-9
  solubility: < 0.15 µg/mL
[6]; DMAC, 2 h, visual observation
  solubility at 2 h: Not precipitated
[6]; DMAC, organic solvent or mixture, thermodynamic from solid, 0.5 h, visual observation
  solubility at 0.5 h: > 100000 µg/mL
[6]; DMSO, 2 h, visual observation
  solubility at 2 h: Not precipitated
[6]; DMSO, organic solvent or mixture, thermodynamic from solid, 0.5 h, visual observation
  solubility at 0.5 h: > 100000 µg/mL
[6]; EtOH, organic solvent or mixture, thermodynamic from solid, 0.5 h
  solubility at 0.5 h: 290 µg/mL (≈ 657 µM)
[6]; EtOH, organic solvent or mixture, thermodynamic from solid, EtOH, 2 h, read-out: Solubility at 2 h
  solubility at 2 h: 270 µg/mL (≈ 612 µM)
[6]; Glycerin, organic solvent or mixture, thermodynamic from solid, 0.5 h
  solubility at 0.5 h: 13 µg/mL (≈ 29.4 µM)
[6]; Glycerin, organic solvent or mixture, thermodynamic from solid, Glycerin, 2 h, read-out: Solubility at 2 h
  solubility at 2 h: 25 µg/mL (≈ 56.6 µM)
[6]; NMP, 2 h, visual observation
  solubility at 2 h: Not precipitated
[6]; NMP, organic solvent or mixture, thermodynamic from solid, 0.5 h, visual observation
  solubility at 0.5 h: > 100000 µg/mL
[6]; PEG400, organic solvent or mixture, thermodynamic from solid, PEG400, 0.5 h
  solubility at 0.5 h: 4420 µg/mL (≈ 10000 µM)
[6]; PEG400, organic solvent or mixture, thermodynamic from solid, PEG400, 2 h, solution was clear at 2 h, read-out: Solubility at 2 h
  solubility at 2 h: > 10000 µg/mL
[6]; PEG400, organic solvent or mixture, thermodynamic from solid, PEG400, span over 0.5 h and 2 h, read-out: Solubility in PEG400
  solubility: 4000 to 10000 µg/mL (≈ 9060 to 22600 µM)
[6]; PG, organic solvent or mixture, thermodynamic from solid, 0.5 h
  solubility at 0.5 h: 400 µg/mL (≈ 906 µM)
[6]; PG, organic solvent or mixture, thermodynamic from solid, PG, 2 h, read-out: Solubility at 2 h
  solubility at 2 h: 420 µg/mL (≈ 951 µM)
[6]; hexane, organic solvent or mixture, thermodynamic from solid, hexane, non-polar solvent, read-out: Solubility in hexane
  solubility: < 0.15 µg/mL
[6]; n-Hexane, organic solvent or mixture, thermodynamic from solid, 0.5 h, LOQ = 0.00015 mg/mL
  solubility at 0.5 h: < 0.15 µg/mL
[6]; n-Hexane, organic solvent or mixture, thermodynamic from solid, n-Hexane, 2 h, LOQ = 0.00015 mg/mL, read-out: Solubility at 2 h
  solubility at 2 h: < 0.15 µg/mL
[6]; solvents other than DMSO, DMAC, NMP and PEG400, organic solvent or mixture, thermodynamic from solid, solvents other than DMSO, DMAC, NMP and PEG400, read-out: Solubility in other solvents
  solubility: < 1000 µg/mL
